Holding throughout (assay type): in vivo, Sprague-Dawley rats
One assay deals with coagulation factor II. The assay is described as follows: Plasma coagulation factor II in rats. The conditions noted are these: 12h after last dose of one week gavage.
The nature of the next assay: Coagulation function. Conditions: rats, 12h after last dose of one week gavage; compared with the control group.
Another assay relates to coagulation factor X. The assay can be described thus: Plasma coagulation factor X in rats. Conditions: 12h after last dose of one week gavage.

Take `CC(=O)CC(c1ccccc1)c1c(O)c2ccccc2oc1=O` (stereo not shown) [Warfarin]: the “plasma coagulation factor II” value in the assay on coagulation factor II is on record as “reduce”. Moreover, in the assay “Coagulation function”, the APTT result is “significantly increased” and the INR entry is listed as “significantly increased”. Further, the “plasma coagulation factor X” value in the assay with coagulation factor X is listed as “reduce”.

For the origin of these results see article PMC11385396 (Journal of Ginseng Research, 2024).
